How the values were obtained:
human RBP4 = target: T1, human RBP4 (Homo sapiens, UniProt P02753); assay: Binding assay by Retinol-RBP4-TTR ELISA; conditions: compound 10 μM; retinol 50 nM; His-tagged human RBP4, biotinylated human TTR; read-out: human RBP4 binding inhibitory activity (% at 10 μM)
T1 construct: the culture supernatant containing secreted hRBP4-His was recovered; made in house; host or cells: FreeStyle 293 expression system (Invitrogen)
Method: Using the Retinol-RBP4-TTR ELISA system shown below, the action of the compound of the present invention to inhibit the binding of RBP4 and retinol and TTR was evaluated.
1F: Binding Assay by Retinol-RBP4-TTR ELISA
This ELISA system detects a complex with RBP4 and TTR based on the retinol dependent binding of RBP4 to TTR.
The His-tagged human RBP4 used was prepared in the above-mentioned 1C.
The biotinylated human TTR used was prepared in the above-mentioned 1E.
Streptavidin (20 μl) (10 μg/ml Streptavidin type II (Wako Pure Chemical Industries, Ltd.), 10 mM Tris-HCl (pH 7.5), 10 mM NaCl) was added to a 384 well blackplate (Nunc MaxiSorp, Thermo Fisher Scientific Inc.), and the plate was centrifuged (1000 rpm, 1 min) and coated at 4° C. overnight. The plate was washed twice with PBST (PBS, 0.05% Tween 20, 100 μl/well), and blocked with 25% Block Ace (Snow Brand Milk Products Co., Ltd., PBS, 100 μl/well). The plate was subjected to centrifugation (1000 rpm, 1 min), and incubated at room temperature for 4 hr or 4° C. overnight. The plate was washed twice with PBST (PBS, 0.05% Tween 20, 100 μl/well), and biotinylated human TTR (stock solution concentration 1.0 mg/ml) diluted 750-fold with PBST was added at 20 μl/well. The plate was subjected to centrifugation (1000 rpm, 1 min), and further stood at room temperature for 1.5 hr or 4° C. overnight. The plate was washed 3 times with PBST (100 μl/well), and His-tagged human RBP4 (stock solution concentration 1.28 mg/ml) diluted 4000-fold with a reaction buffer (50 mM Tris-HCl, 150 mM NaCl, 0.005% Tween 20, 1 mM DTT, 0.1% BSA) was added at 10 μl/well. The dilution of the compound (200-fold concentration) was prepared with DMSO, and 1.6 μl each was added to a reaction buffer (320 μl) containing retinol (50 nM) (Sigma-Aldrich Co.). A reaction buffer (320 μl) containing retinol and added with DMSO was used as a positive control, and a reaction buffer (320 μl) not containing retinol and added with DMSO was used as a negative control. A mixed solution of retinol and the compound was added to the plate at 15 μl/well. The plate was stirred in a plate mixer, centrifuged (1000 rpm, 1 min), and reacted at room temperature for 2 hr. Anti-His HRP-conjugated antibody (QIAGEN) solution diluted with a reaction buffer was added […], centrifuged (1000 rpm, 1 min), and reacted at room temperature for 30 min. The plate was washed 3 times with PBST (100 μl/well), SuperSignal ELISA Femto Maximum Sensitivity Substrate reagent (PIERCE, Thermo Fisher Scientific Inc.) was added at 30 μl/well, and the luminescence was measured by a plate reader (Envision).
The binding inhibitory activity of the compound was determined by 100×(positive control value−test compound value)/(positive control value−negative control value).

RBP4 = target: T2, RBP4 (Mus musculus, UniProt Q00724); assay: Blood RBP4-lowering action in C57BL/6J mouse (plasma RBP4 by ELISA); type: in vivo; conditions: male C57BL/6J mice, mean±SD, n=4 or 5; for RBP4 (initial value/control value %) 8 hr later: plasma 8 hr after administration
T2 construct: from tissue; host or cells: plasma of male C57BL/6J mice (Japan Charles River)
Method: The blood RBP4-lowering action of the compound of the present invention was evaluated using C57BL/6J mouse.
Male 7- to 10-week-old C57BL/6J mice (Japan Charles River) were acclimation reared under free food ingestion conditions on CE-2 solid feed (CLEA Japan, Inc.) for 4 to 6 days, and randomly grouped (4 or 5 per group). On the day of the test, blood samples were collected from the tail vein, and plasma was separated (0 hr value). Thereafter, a test compound (Example 1, 4, 5, 6 or 7) was orally administered at a dose of 5 mg/kg (solvent: 0.5% methylcellulose solution (10 mL/kg)). At 8 hr after the compound was administered, blood samples were collected from the tail vein and plasma was separated. Immediately after the blood samples were collected, the test compound was orally administered again at a dose of 5 mg/kg, and blood samples were collected again at 24 hr after the initial administration. In Examples 2, 3 and 8, the initial administration alone was performed at a dose of 10 mg/kg. The daily dose of all the test compounds was set to 10 mg/kg. A 0.5% methylcellulose solution (10 mL/kg) was orally administered to the control group.
The amount of RBP4 in the collected plasma was measured by the ELISA method. Using rabbit anti-mouse RBP4 polyclonal antibody (Hokudo Co., Ltd.), RBP4 was quantified by the following process. A 96 well ELISA plate was coated with 50 μg/mL antibody (100 μL), and stood at 4° C. overnight or at room temperature for 2 hr. After blocking with BlockAce (Dainippon Pharmaceutical Co., Ltd.), 100 μL of mouse RBP4 or sample was added and the plate was stood at room temperature for 2 hr, washed with PBS-0.5% Tween20, added with HRP-labeled anti-RBP4 antibody (prepared by labeling RBP4 polyclonal antibody (Hokudo Co., Ltd.) with HRP (DOJINDO LABORATORIES)) (100 μL), and stood at room temperature for 1 hr. After washing, TMB (Sigma) was added at room temperature for 20 min to allow for color development. The reaction was quenched with 2N sulfuric acid and the absorbance at A450 nm was measured by a platereader. Variation from the initial value of each individual was taken as the relative value to the control group (initial value/control value, %) at each time point. The results are shown below in mean±standard deviation (n=4 or 5).

A2E = assay: Suppression of A2E accumulation in the eyeball of ABCA4 KO mouse (HPLC); type: in vivo; conditions: male ABCA4 KO mice, oral 5 mg/kg twice per day for 12 weeks, n=6
Method: The suppressive action for accumulation of retinoid metabolite bis-retinoid N-retinylidene-N-retinylethanolamine (A2E) in the eyeball, of the compound of the present invention, was evaluated using ATP-binding cassette A4 knockout (ABCA4 KO) mouse. A2E is the major constituent component of Lipofuscin in the eyeball, and is involved in the onset and pathology progression in atrophic age-related macular degeneration and Stargardt's disease. ABCA4 KO mouse was confirmed to show remarkable accumulation of A2E, Lipofuscin along with aging, and is known as an animal model of atrophic age-related macular degeneration and Stargardt's disease.
8-Week-old male ABCA4 KO mice were randomly grouped, and 0.5% methylcellulose solution was orally administered to the control group, and 0.5% methylcellulose suspension of a compound at a dose shown in the following Table was orally administered to the test compound group, each twice per day at 10 mL/kg. Each group contained 6 mice. After repetitive administration for 12 weeks, eyeball was isolated under anesthesia.
In the eyeball, A2E was measured by the HPLC method. A2E reference standard was synthesized from all-trans retinal, ethanolamine in acetic acid-added ethanol. […] Quantification was performed at ultraviolet absorbance at 440 nm by PDA.

[1] = oral 5 mg/kg at 0 hr and again at 8 hr (daily dose 10 mg/kg), plasma 24 hr after initial administration
[2] = oral 10 mg/kg initial administration alone
[3] = oral 10 mg/kg initial administration alone, plasma 24 hr after administration

Compound	inhibition at 10 µM (human RBP4) [%]	RBP4 (initial value/control value %) 24 hr later (RBP4; [1]) [%]	RBP4 (initial value/control value %) 8 hr later (RBP4; oral 5 mg/kg) [%]	RBP4 (initial value/control value %) 8 hr later (RBP4; [2]) [%]	RBP4 (initial value/control value %) 24 hr later (RBP4; [3]) [%]	A2E (% of control value) (A2E) [%]
O=C(O)CC(=O)N1CC[C@H](COc2ccccc2C2(C(F)(F)F)CC2)C1 [Example 1, 3-oxo-3-((3S)-3-((2-(1-(trifluoromethyl)cyclopropyl)phenoxy)methyl)pyrrolidin-1-yl)propanoic acid]	100	28.49 ± 5.16	30.02 ± 6.85	–	–	–
CC1(c2ccccc2OC[C@H]2CCN(C(=O)CC(=O)O)C2)CC1 [Example 2, 3-((3S)-3-((2-(1-methylcyclopropyl)phenoxy)methyl)pyrrolidin-1-yl)-3-oxopropanoic acid]	98	–	–	11.82 ± 3.24	36.40 ± 12.19	–
O=C(O)CC(=O)N1CC[C@H](COc2ccccc2C2CCC2)C1 [Example 3, 3-((3S)-3-((2-cyclobutylphenoxy)methyl)pyrrolidin-1-yl)-3-oxopropanoic acid]	98	–	–	37.20 ± 3.71	95.57 ± 8.55	–
O=C(O)CC(=O)N1CC[C@H](COc2ccccc2C2CCCC2)C1 [Example 4, 3-((3S)-3-((2-cyclopentylphenoxy)methyl)pyrrolidin-1-yl)-3-oxopropanoic acid]	100	56.02 ± 9.72	29.93 ± 6.80	–	–	53.94 ± 15.16
O=C(O)CC(=O)N1CC[C@H](COc2ccccc2C2CCCCC2)C1 [Example 5, 3-((3S)-3-((2-cyclohexylphenoxy)methyl)pyrrolidin-1-yl)-3-oxopropanoic acid]	100	62.83 ± 4.70	32.30 ± 1.76	–	–	–
O=C(O)CC(=O)N1CC[C@@H](COc2ccccc2C2CCCC2)C1 [Example 6, 3-((3R)-3-((2-cyclopentylphenoxy)methyl)pyrrolidin-1-yl)-3-oxopropanoic acid]	100	41.90 ± 20.25	41.42 ± 13.96	–	–	–
O=C(O)CC(=O)N1CCC(COc2ccccc2C2CCCC2)C1 (stereo not drawn) [Example 7, 3-(3-((2-cyclopentylphenoxy)methyl)pyrrolidin-1-yl)-3-oxopropanoic acid]	100	53.72 ± 6.97	33.90 ± 6.60	–	–	–
CCOC(=O)CC(=O)N1CC[C@H](COc2ccccc2C2(C(F)(F)F)CC2)C1 [Example 8, ethyl 3-oxo-3-((3S)-3-((2-(1-(trifluoromethyl)cyclopropyl)phenoxy)methyl)pyrrolidin-1-yl)propanoate]	–	–	–	77.35 ± 7.08	92.76 ± 6.81	–
